The source of these data is patent US20230382925A1, “MODULATORS OF CYSTIC FIBROSIS TRANSMEMBRANE CONDUCTANCE REGULATOR” (VERTEX PHARMACEUTICALS INCORPORATED, priority 2020, published 2023).

For data set [1] the following is noted: amide bond, 13-membered ring, DMF.
For data set [2], the target named is CFTR (Homo sapiens, UniProt P13569). Description: Membrane Potential Dye, Enteroid Assay B. It counts as cell-based. The gist of the method:
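Human intestinal enteroid cells exposed to compound 18-24 h at 37 °C, then loaded with methyl oxonol membrane-potential dye plus CaCC blockers. Chloride transport triggered in chloride-free buffer with 10 μM forskolin, 100 μM IBMX, 300 nM Compound III; fluorescence read 15 min, expressed as % of triple-corrector/potentiator combination control.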

Data set [3] has as its target T1, CFTR (Homo sapiens, UniProt P13569, DEL508-508).
T1 construct: human bronchial epithelial (HBE) cells derived from CF subjects heterozygous for F508del; endogenous in cells; host or cells: primary human bronchial epithelial cells from CF subjects (F508del/MF-HBE)
Description: HBE assay: Ussing chamber assay of CFTR-mediated short-circuit currents (F508del/MF-HBE, with 1 μM Ivacaftor). Format: cell-based. As to conditions: F508del/MF-HBE cells, 18-24 hours, 20% human serum; for EC50: range of concentrations with 1 μM Ivacaftor; for HBE Max Activity: with 1 μM Ivacaftor, compared to known Vertex corrector with 18 μM Tezacaftor and 1 μM Ivacaftor. The procedure:
1. Ussing Chamber Assay of CFTR-mediated short-circuit currents
Ussing chamber experiments were performed using human bronchial epithelial (HBE) cells derived from CF subjects heterozygous for F508del and a minimal function CFTR mutation (F508del/MF-HBE) and cultured as previously described (Neuberger T, Burton B, Clark H, Van Goor F Methods Mol Biol 2011:741:39-54). After four days the apical media was removed, and the cells were grown at an air liquid interface for >14 days prior to use.
To isolate the CFTR-mediated short-circuit (ISC) current, F508del/MF-HBE grown on Costar® Snapwell™ cell culture inserts were mounted in an Ussing chamber and the transepithelial ISC was measured under voltage-clamp recording conditions (Vhold=0 mV) at 37° C. The basolateral solution contained (in mM) 145 NaCl, 0.83 K2HPO4, 3.3 KH2PO4, 1.2 MgCl2, 1.2 CaCl2), 10 Glucose, 10 HEPES (pH adjusted to 7.4 with NaOH) and the apical solution contained (in mM) 145 NaGluconate, 1.2 MgCl2, 1.2 CaCl2), 10 glucose, 10 HEPES (pH adjusted to 7.4 with NaOH) and 30 μM amiloride to block the epithelial sodium channel. Forskolin (20 μM) was added to the apical surface to activate CFTR, followed by apical addition of a CFTR inhibitor cocktail consisting of BPO, GlyH-101, and CFTR inhibitor 172 (each at 20 μM final assay concentration) to specifically isolate CFTR currents. The CFTR-mediated ISC (μA/cm^2) for each condition was determined from the peak forskolin response to the steady-state current following inhibition.
2. Identification of Corrector Compounds
The activity of the CFTR corrector compounds on the CFTR-mediated ISC was determined in Ussing chamber studies as described above. The F508del/MF-HBE cell cultures were either incubated with the corrector compounds at a range of concentrations in combination with 1 μM Ivacaftor or were incubated with the corrector compounds at a single fixed concentration of 10 μM in combination with 1 μM Ivacaftor for 18-24 hours at 37° C. and in the presence of 20% human serum. The concentration of corrector compounds with 1 μM Ivacaftor during the 18-24 hours incubations was kept constant throughout the Ussing chamber measurement of the CFTR-mediated ISC to ensure compounds were present throughout the entire experiment.

The mark [4] stands for this setting: Table 10, read-out: Ent. B EC50.

Values joined by “and” are separate entries in the source; they are usually repeats but may differ in a detail not shown here. Identical values can stand only once. Like-named read-outs stand apart in the source and are kept apart here.

T1 sequence (P13569 with tags, fused parts or gaps DEL508-508): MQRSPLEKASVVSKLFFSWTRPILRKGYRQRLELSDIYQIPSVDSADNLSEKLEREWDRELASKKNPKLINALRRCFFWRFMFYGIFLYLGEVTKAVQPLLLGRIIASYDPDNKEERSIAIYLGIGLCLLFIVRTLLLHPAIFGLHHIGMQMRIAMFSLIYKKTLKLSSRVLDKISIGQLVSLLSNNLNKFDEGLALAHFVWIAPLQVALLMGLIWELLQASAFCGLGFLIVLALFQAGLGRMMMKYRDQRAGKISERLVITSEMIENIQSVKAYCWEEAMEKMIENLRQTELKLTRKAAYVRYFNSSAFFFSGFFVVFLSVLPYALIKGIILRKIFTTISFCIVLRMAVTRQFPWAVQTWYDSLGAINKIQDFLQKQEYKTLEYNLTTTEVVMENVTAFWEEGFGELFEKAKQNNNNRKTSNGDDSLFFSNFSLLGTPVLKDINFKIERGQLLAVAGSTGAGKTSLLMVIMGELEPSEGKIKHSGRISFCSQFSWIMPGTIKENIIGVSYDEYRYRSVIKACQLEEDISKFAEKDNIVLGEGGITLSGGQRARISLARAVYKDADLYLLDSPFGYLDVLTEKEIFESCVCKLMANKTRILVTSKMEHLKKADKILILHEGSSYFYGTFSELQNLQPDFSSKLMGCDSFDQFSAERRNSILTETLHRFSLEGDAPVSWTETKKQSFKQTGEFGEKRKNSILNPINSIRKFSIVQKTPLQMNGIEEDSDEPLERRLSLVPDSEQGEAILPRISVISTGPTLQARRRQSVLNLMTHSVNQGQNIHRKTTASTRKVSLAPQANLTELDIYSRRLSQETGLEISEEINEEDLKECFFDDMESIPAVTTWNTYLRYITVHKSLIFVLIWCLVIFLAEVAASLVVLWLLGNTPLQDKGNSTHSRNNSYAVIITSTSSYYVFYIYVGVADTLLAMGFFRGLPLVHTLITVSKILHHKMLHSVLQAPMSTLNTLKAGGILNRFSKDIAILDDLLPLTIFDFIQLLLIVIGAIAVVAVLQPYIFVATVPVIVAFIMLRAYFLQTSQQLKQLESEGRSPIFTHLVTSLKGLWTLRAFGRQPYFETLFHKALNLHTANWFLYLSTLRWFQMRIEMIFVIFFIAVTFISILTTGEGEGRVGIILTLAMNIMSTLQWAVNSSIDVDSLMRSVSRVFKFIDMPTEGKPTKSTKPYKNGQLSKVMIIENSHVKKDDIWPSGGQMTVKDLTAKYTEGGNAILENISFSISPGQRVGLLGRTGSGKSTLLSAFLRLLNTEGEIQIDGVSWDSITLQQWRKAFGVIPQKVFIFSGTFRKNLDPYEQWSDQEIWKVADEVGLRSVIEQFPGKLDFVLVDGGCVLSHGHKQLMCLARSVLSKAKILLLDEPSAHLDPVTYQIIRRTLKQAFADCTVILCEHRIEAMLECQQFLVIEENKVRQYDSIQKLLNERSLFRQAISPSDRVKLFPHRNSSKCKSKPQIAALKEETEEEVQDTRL
Sequence of CFTR (Homo sapiens, UniProt P13569) (P13569 with tags, fused parts or gaps DEL508-508): as above

In the case of `COC(=O)C1CC2(C1)CC(N1C(=O)c3cccc(c3)S(=O)(=O)Nc3nc(cc(-c4c(C)cccc4C)n3)OC[C@H]1CC1(C(F)(F)F)CC1)C2` (stereo partly shown), in data set [1] (from COC(=O)C1CC2(CC(N[C@@H](COc3cc(-c4c(C)cccc4C)nc(NS(=O)(=O)c4cccc(C(=O)O)c4)n3)CC3(C(F)(F)F)CC3)C2)C1, HATU/TEA, 25.0 °C, 16.0 h, 2 steps), the ring closure, yield after HPLC stood at 32%. In data set [1] (from COC1C[C@H]2CC(N[C@@H](COc3cc(-c4c(C)cccc4C)nc(NS(=O)(=O)c4cccc(C(=O)O)c4)n3)CC(C)C)C[C@H]2C1, COMU/DIEA, 29.7 mM, 14.0 h), `COC1C[C@@H]2CC(N3C(=O)c4cccc(c4)S(=O)(=O)Nc4nc(cc(-c5c(C)cccc5C)n4)OC[C@H]3CC(C)C)C[C@@H]2C1` (stereo partly shown) gave a ring closure, yield after HPLC of 30%. For `Cc1cccc(C)c1-c1cc2cc(n1)NS(=O)(=O)c1cccc(c1)C(=O)N(C1CC3(CCN(C(=O)OC(C)(C)C)CC3)C1)[C@H](CC(C)C)CO2`, in data set [1] (from Cc1cccc(C)c1-c1cc(OC[C@@H](CC(C)C)NC2CC3(CCN(C(=O)OC(C)(C)C)CC3)C2)cc(NS(=O)(=O)c2cccc(C(=O)O)c2)n1, HATU/DIEA, 34.7 mM, 14.0 h), the ring closure, yield after HPLC turned out to be 16%. With `Cc1cccc(C)c1-c1cc2nc(n1)NS(=O)(=O)c1cccc(c1)C(=O)N(C1CC(C(=O)OC(C)(C)C)C1)[C@H](CC(C)C)CO2` (stereo partly shown), the ring closure, yield after HPLC in data set [1] (from Cc1cccc(C)c1-c1cc(OC[C@@H](CC(C)C)NC2CC(C(=O)OC(C)(C)C)C2)nc(NS(=O)(=O)c2cccc(C(=O)O)c2)n1, HATU/DIEA, 16.0 h, 2 steps) was 79%. For `Cc1cccc(C)c1-c1cc2nc(n1)NS(=O)(=O)c1cccc(c1)C(=O)N(C1CC(CNC(=O)OC(C)(C)C)C1)[C@H](CC(C)C)CO2` (stereo partly shown), the ring closure, yield after HPLC in data set [1] (from Cc1cccc(C)c1-c1cc(OC[C@@H](CC(C)C)NC2CC(CNC(=O)OC(C)(C)C)C2)nc(NS(=O)(=O)c2cccc(C(=O)O)c2)n1, HATU/DIEA, 7.0 h, 2 steps) was 15% and 19%. As to `Cc1cccc(C)c1-c1cc2nc(n1)NS(=O)(=O)c1cccc(c1)C(=O)N(C1CC(CO)C1)[C@H](CC(C)C)CO2` (stereo partly shown), the ring closure, yield after HPLC in data set [1] (from Cc1cccc(C)c1-c1cc(OC[C@@H](CC(C)C)NC2CC(CO)C2)nc(NS(=O)(=O)c2cccc(C(=O)O)c2)n1, HATU/DIPEA, 32.3 mM, 1.0 h) was found to be 11%. Regarding `Cc1cccc(C)c1-c1cc2nc(n1)NS(=O)(=O)c1cccc(c1)C(=O)N(C1CC(NC(=O)OC(C)(C)C)C1)[C@H](CC(C)C)CO2` (stereo partly shown), the ring closure, yield after HPLC in data set [1] (from Cc1cccc(C)c1-c1cc(OC[C@@H](CC(C)C)NC2CC(NC(=O)OC(C)(C)C)C2)nc(NS(=O)(=O)c2cccc(C(=O)O)c2)n1, HATU/DIPEA, 22.4 mM, 6.0 h, 2 steps) is 7% and 6%. The molecule `Cc1cccc(C)c1-c1cc2nc(n1)NS(=O)(=O)c1cccc(c1)C(=O)N(C1CC(OC(C)C)C1)[C@H](CC1(C(F)(F)F)CC1)CO2` (stereo partly shown) had a ring closure, yield after HPLC in data set [1] (from Cc1cccc(C)c1-c1cc(OC[C@@H](CC2(C(F)(F)F)CC2)NC2CC(OC(C)C)C2)nc(NS(=O)(=O)c2cccc(C(=O)O)c2)n1, HATU/TEA, 44.0 mM, 16.0 h) of 18%. In the case of `Cc1cccc(C)c1-c1cc2nc(n1)NS(=O)(=O)c1cccc(c1)C(=O)N(C1CC3(CC3)C1)C(CC(F)(F)F)CO2` (stereo not shown), the ring closure, yield after HPLC in data set [1] (from Cc1cccc(C)c1-c1cc(OCC(CC(F)(F)F)NC2CC3(CC3)C2)nc(NS(=O)(=O)c2cccc(C(=O)O)c2)n1, HATU/TEA, 18.3 mM, 18.0 h) came to 15%.

Take `Cc1cccc(C)c1-c1cc2nc(n1)NS(=O)(=O)c1cccc(c1)C(=O)N(C1CCC1C1CC1)[C@H](CC(C)(C)C)CO2` (stereo partly shown): the ring closure, yield after HPLC in data set [1] (from Cc1cccc(C)c1-c1cc(OC[C@@H](CC(C)(C)C)NC2CCC2C2CC2)nc(NS(=O)(=O)c2cccc(C(=O)O)c2)n1, CDMT/NMM, 25.0 °C, 2 steps) was 2%. Turning to `Cc1cccc(C)c1-c1cc2nc(n1)NS(=O)(=O)c1cccc(c1)C(=O)N(C1CN(C(=O)OC(C)(C)C)C(C)(C)C1)[C@H](CC(C)C)CO2` (stereo partly shown), the ring closure, yield after HPLC in data set [1] (from Cc1cccc(C)c1-c1cc(OC[C@@H](CC(C)C)NC2CN(C(=O)OC(C)(C)C)C(C)(C)C2)nc(NS(=O)(=O)c2cccc(C(=O)O)c2)n1, COMU/DIEA, 2 steps) was 8% and 4%. As for `Cc1cccc(C)c1-c1cc2nc(n1)NS(=O)(=O)c1cccc(n1)C(=O)N(C1CC3(C1)CC(C(C)(C)O)C3)[C@H](CC(C)(C)C)CO2` (stereo partly shown), in data set [1] (from Cc1cccc(C)c1-c1cc(OC[C@@H](CC(C)(C)C)NC2CC3(C2)CC(C(C)(C)O)C3)nc(NS(=O)(=O)c2cccc(C(=O)O)n2)n1, HATU/DIEA, 26.7 mM, 25.0 °C, 17.0 h), the ring closure, yield after HPLC was found to be 28%. As usually defined, the EC50 is the concentration giving half of the maximal effect. For the molecule `COCCn1cc(N2C(=O)c3cccc(c3)S(=O)(=O)Nc3nc(cc(-c4c(C)cccc4C)n3)OC[C@H]2CCC(C)C)cn1` [Compound 6, (11R)-6-(2,6-Dimethylphenyl)-11-isopentyl-12-[1-(2-methoxyethyl)pyrazol-4-yl]-2,2-dioxo-9-oxa-2λ^6-thia-3,5,12,19-tetrazatricyclo[12.3.1.14,8]nonadeca-1(18),4(19),5,7,14,16-hexaen-13-one], the “Ent. B Max Activity (%)” value on CFTR [2] (Table 10) is reported as “+++ (+++ is >60%)”. Also, the 50% effective concentration (EC50) at CFTR [2] (setting [4]) is below 1000 nM. Besides, the ring closure, yield after HPLC in data set [1] (from COCCn1cc(N[C@H](CCC(C)C)COc2cc(-c3c(C)cccc3C)nc(NS(=O)(=O)c3cccc(C(=O)O)c3)n2)cn1, CDMT/NMM, 48.0 h, 2 steps) turned out to be 16%. Regarding `Cc1cccc(C)c1-c1cc2nc(n1)NS(=O)(=O)c1cccc(c1)C(=O)N(c1cnn(C)c1)[C@H](CCC(C)C)CO2` [Compound 7, (11R)-6-(2,6-Dimethylphenyl)-11-isopentyl-12-(1-methylpyrazol-4-yl)-2,2-dioxo-9-oxa-2λ^6-thia-3,5,12,19-tetrazatricyclo[12.3.1.14,8]nonadeca-1(18),4(19),5,7,14,16-hexaen-13-one], the “Ent. B Max Activity (%)” value at CFTR [2] (Table 10) is “+++ (+++ is >60%)”. Further, the EC50 at CFTR [2] (setting [4]) is below 1000 nM. For the same molecule, the ring closure, yield after HPLC in data set [1] (from Cc1cccc(C)c1-c1cc(OC[C@@H](CCC(C)C)Nc2cnn(C)c2)nc(NS(=O)(=O)c2cccc(C(=O)O)c2)n1, CDMT/NMM, 48.0 h, 2 steps) was found to be 19%. As to `Cc1cc(F)cc(C)c1-c1cc2nc(n1)NS(=O)(=O)c1cccc(c1)C(=O)N(C1CC3(CC3)C1)[C@H](CC(C)C)CO2` [Compound 10, (11R)-6-(4-Fluoro-2,6-dimethyl-phenyl)-11-isobutyl-2,2-dioxo-12-spiro[2.3]hexan-5-yl-9-oxa-2λ^6-thia-3,5,12,19-tetrazatricyclo[12.3.1.14,8]nonadeca-1(18),4(19),5,7,14,16-hexaen-13-one], the “Ent. B Max Activity (%)” value on CFTR [2] (Table 9) is on record as “+++ (+++ is >60%)”. Further, on CFTR [2] (Table 9, read-out: Ent. B EC50), the EC50 was below 1000 nM. The same molecule had a ring closure, yield after HPLC in data set [1] (from Cc1cc(F)cc(C)c1-c1cc(OC[C@@H](CC(C)C)NC2CC3(CC3)C2)nc(NS(=O)(=O)c2cccc(C(=O)O)c2)n1, HATU/TEA, 53.7 mM, 25.0 °C, 4.0 h) of 48%.

As to `Cc1cccc(C)c1-c1cc2nc(n1)NS(=O)(=O)c1cccc(c1)C(=O)N(c1cnn(CC(=O)OC(C)(C)C)c1)[C@H](CC(C)(C)C)CO2` [Compound 427], at CFTR [3], the EC50 is below 1000 nM and the “HBE Max Activity” value is on record as “+++ (+++ is >60%)”.

With `Cc1cccc(C)c1-c1cc2nc(n1)NS(=O)(=O)c1cccc(c1)C(=O)N(c1cnn(CC(=O)OC(C)(C)C)c1)[C@H](CC(C)C)CO2` [Compound 429], on CFTR [3], the EC50 is below 1000 nM and the “HBE Max Activity” value is “+++ (+++ is >60%)”. Turning to `Cc1cccc(C)c1-c1cc2nc(n1)NS(=O)(=O)c1cccc(c1)C(=O)N(C1CC3(CC(N4CCOCC4)C3)C1)[C@H](CC(C)(C)C)CO2` (stereo partly shown) [Compound 433], at CFTR [3], the EC50 was below 1000 nM and the “HBE Max Activity” value is reported as “+++ (+++ is >60%)”.

As for `Cc1cccc(C)c1-c1cc2nc(n1)NS(=O)(=O)c1cccc(c1)C(=O)N(C1CC3(CCN(C)CC3)C1)[C@@H]1CN(C3CC4(CCCCC4)C3)C[C@H]1O2` (stereo partly shown) [Compound 473], at CFTR [3] (single fixed concentration of 10 μM with 1 μM Ivacaftor), the “HBE Activity at 10 μM” value is recorded as “+++ (+++ is >60%)”.
